This note sets out measurements from patent US12221422B2, “Compounds and their use for the treatment of alpha1-antitrypsin deficiency” (CENTESSA PHARMACEUTICALS (UK) LIMITED, priority 2018, dated 2025).

The fraction unbound is free concentration divided by total concentration. As a reminder, the IC50 is the concentration needed to halve the response being measured. For orientation: inhibition means the relative decrease from the control value, in per cent. Read a high inhibition as a response far below the control. Broadly, the solubility is the concentration that dissolves in the medium under given conditions. A lower solubility goes with little dissolved substance.

Series [1] is described as follows: Plasma protein binding, human plasma (rapid equilibrium dialysis). The format is in vitro ADME. Particulars: 37° C. The method, then: The extent to which compounds of the invention bound to plasma proteins such as albumin and alpha-1 acid glycoprotein within human, rat or mouse plasma was determined by rapid equilibrium dialysis. Compounds were incubated at 5 μM for 4 hours at 37° C. Plasma protein binding for N,N-dimethyl-4-((6-oxopyrimidin-1(6H)-yl)methyl)benzamide in mouse plasma was 37.3%, in rat plasma was 14.8% and in human plasma was 30.6%.
(In general: In equilibrium dialysis only unbound substance equilibrates across the membrane.)

In series [2] the target is T1, CYP 1A2 (Homo sapiens, UniProt P05177).
T1 construct: purchased CYPEX; host or cells: E. coli
T1 sequence (P05177 1-516): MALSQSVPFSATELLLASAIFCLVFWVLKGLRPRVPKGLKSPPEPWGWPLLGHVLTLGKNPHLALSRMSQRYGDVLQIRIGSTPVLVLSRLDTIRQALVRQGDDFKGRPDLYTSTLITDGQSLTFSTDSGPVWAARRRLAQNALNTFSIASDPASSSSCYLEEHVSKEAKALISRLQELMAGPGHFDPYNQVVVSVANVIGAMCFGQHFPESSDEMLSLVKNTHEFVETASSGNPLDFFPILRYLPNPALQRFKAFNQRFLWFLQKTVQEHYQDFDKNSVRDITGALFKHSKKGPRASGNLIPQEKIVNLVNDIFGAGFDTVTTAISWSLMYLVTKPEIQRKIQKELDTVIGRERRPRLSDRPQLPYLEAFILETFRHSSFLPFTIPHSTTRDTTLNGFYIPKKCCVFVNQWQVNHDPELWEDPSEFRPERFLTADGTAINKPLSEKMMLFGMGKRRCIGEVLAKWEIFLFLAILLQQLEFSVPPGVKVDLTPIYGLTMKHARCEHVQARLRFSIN
As to the kind of experiment: CYP inhibition, E. coli CYPEX membranes. In kind it is in vitro ADME. The note with it: specific probe substrates. The method, then:
(§1) Using E. coli CYPEX membranes in combination with specific probe substrates, the inhibition of individual CYPs by compounds of the invention using the method described in Weaver et al., 2003, Drug Metab Dispos 31:7, 955-966 was assessed.

In series [3] the target is T2, CYP 2C19 (Homo sapiens, UniProt P33261).
T2 construct: purchased CYPEX; host or cells: E. coli
As to the kind of experiment: CYP inhibition, E. coli CYPEX membranes. The format is in vitro ADME. The note with it: specific probe substrates. The method, then: as §1

Series [4] deals with T3, CYP 2C9 (Homo sapiens, UniProt P11712).
T3 construct: purchased CYPEX; host or cells: E. coli
Put plainly: CYP inhibition, E. coli CYPEX membranes. The format is in vitro ADME. The note with it: specific probe substrates. How it is done: as §1

Series [5] concerns the target T4, CYP 2D6 (Homo sapiens, UniProt P10635).
T4 construct: purchased CYPEX; host or cells: E. coli
Put plainly: CYP inhibition, E. coli CYPEX membranes. The format is in vitro ADME. Particulars: specific probe substrates. How it is done: as §1

For series [6], the target named is T5, CYP 3A4 (Homo sapiens, UniProt P08684).
T5 construct: purchased CYPEX; host or cells: E. coli
As to the kind of experiment: CYP inhibition, E. coli CYPEX membranes. In kind it is in vitro ADME. Particulars: specific probe substrates. How it is done: as §1

For series [7], the target named is cardiac potassium (hERG) channels (Homo sapiens, UniProt Q12809). As to the kind of experiment: hERG channel inhibition, Patchliner automated patch clamp. In kind it is cell-based. Particulars: automated patch clamp, maximum test concentration 100 μM. How it is done: (§2) Compounds of the invention were tested for inhibition of cardiac potassium (hERG) channels using the Patchliner automated patch clamp. 6-Point concentration-response curves were generated using half-log serial dilutions from a maximum final test concentration of 100 μM. IC50 values were obtained from a 4-parameter logistic fit of the concentration-response data. […] Reference compound values were consistent with those presented in the literature (Elkins et al., 2013 J. Pharm. Tox. Meth. 68:11-122).

Series [8] deals with hERG (Homo sapiens, UniProt Q12809). Described as above. In kind it is cell-based. Particulars: human; at 100 μM. How it is done:
as §2

A short description of series [9]: Aqueous solubility. In kind it is physicochemical. The note with it: thermodynamic from solid; water, shaken for 5 minutes until clear solution. The method, then: Compounds of the invention were shaken for 5 minutes with increasing amounts of water until a clear solution had formed. Using this method the solubility of N,N-dimethyl-4-((6-oxopyrimidin-1(6H)-yl)methyl)benzamide was greater than 100 mg/ml.

Series [10] concerns TA98, TA100, WP2 uvrA, TA1535, TA1537 bacterial strains. Put plainly: Bacterial reverse mutation test. Particulars: up to 5000 μg/plate, presence and absence of S-9 mix. How it is done: The purpose of the bacterial reverse mutation test is to assess the mutagenic potential of the test item by its ability to revert the specified bacterial strains from auxotrophic growth to prototrophy. The assay detects point (gene) mutations at specific histidine or tryptophan loci, which may be induced by compounds that cause base pair substitutions or frameshift mutations in the genome of these organisms. Assays were performed in the presence and absence of an exogenous mammalian oxidative metabolising system (S-9 mix, a liver post-mitochondrial fraction derived from the livers of Aroclor 1254 treated rats), to mimic mammalian metabolism. The test methodology was based on established procedures for bacterial mutagenicity testing.
N,N-dimethyl-4-((6-oxopyrimidin-1(6H)-yl)methyl)benzamide was tested up to the guideline regulatory maximum dose level of 5000 μg/plate in all strains in the presence and absence of […].
There were no increases in revertant numbers, greater than the defined fold-increases (to twice the relevant negative control value for TA98, TA100 or WP2 uvrA or three times the relevant negative control value for TA1535 or TA1537), in any strain at any dose level of N,N-dimethyl-4-((6-oxopyrimidin-1(6H)-yl)methyl)benzamide, in the presence or absence of S-9 mix, under plate incorporation conditions.

T5 sequence (P08684 whole entry): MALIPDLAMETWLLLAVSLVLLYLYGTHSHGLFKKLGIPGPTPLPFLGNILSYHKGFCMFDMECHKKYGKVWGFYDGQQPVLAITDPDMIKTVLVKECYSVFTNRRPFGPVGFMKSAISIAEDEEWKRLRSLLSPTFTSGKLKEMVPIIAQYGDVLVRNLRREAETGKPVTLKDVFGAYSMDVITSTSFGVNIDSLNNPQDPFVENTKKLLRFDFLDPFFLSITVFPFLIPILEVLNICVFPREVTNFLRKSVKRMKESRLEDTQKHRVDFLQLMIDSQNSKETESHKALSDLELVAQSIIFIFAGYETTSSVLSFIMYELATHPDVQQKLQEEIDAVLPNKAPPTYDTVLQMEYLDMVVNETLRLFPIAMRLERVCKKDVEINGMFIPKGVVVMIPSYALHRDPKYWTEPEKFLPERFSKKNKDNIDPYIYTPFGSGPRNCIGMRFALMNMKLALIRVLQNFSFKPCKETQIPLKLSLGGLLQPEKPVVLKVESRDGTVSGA
T2 sequence (P33261 whole entry): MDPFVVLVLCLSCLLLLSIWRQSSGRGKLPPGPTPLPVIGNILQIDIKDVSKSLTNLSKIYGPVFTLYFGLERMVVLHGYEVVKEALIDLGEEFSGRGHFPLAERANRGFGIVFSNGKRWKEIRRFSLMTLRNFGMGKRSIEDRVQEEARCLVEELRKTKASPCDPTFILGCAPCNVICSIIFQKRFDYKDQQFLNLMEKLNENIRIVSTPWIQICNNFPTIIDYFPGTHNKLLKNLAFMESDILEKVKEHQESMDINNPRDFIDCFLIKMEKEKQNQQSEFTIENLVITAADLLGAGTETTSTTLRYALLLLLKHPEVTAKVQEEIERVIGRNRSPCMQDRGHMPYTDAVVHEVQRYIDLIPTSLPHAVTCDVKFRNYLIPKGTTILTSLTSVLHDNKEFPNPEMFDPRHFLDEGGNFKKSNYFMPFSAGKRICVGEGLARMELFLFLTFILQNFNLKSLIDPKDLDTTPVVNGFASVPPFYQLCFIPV
T4 sequence (P10635 whole entry): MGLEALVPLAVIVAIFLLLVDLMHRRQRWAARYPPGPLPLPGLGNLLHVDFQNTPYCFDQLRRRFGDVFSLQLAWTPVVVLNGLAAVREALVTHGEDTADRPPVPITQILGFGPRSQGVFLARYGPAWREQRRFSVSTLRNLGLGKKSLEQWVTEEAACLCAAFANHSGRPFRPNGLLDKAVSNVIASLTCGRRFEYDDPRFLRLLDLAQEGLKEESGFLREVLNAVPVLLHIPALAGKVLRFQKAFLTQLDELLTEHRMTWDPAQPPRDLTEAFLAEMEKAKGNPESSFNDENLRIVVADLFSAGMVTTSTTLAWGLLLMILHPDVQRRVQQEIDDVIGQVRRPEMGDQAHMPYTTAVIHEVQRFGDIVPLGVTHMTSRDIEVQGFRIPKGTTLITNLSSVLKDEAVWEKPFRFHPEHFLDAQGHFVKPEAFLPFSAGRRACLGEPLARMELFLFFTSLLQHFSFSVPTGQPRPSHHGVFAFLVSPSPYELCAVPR
T3 sequence (P11712 whole entry): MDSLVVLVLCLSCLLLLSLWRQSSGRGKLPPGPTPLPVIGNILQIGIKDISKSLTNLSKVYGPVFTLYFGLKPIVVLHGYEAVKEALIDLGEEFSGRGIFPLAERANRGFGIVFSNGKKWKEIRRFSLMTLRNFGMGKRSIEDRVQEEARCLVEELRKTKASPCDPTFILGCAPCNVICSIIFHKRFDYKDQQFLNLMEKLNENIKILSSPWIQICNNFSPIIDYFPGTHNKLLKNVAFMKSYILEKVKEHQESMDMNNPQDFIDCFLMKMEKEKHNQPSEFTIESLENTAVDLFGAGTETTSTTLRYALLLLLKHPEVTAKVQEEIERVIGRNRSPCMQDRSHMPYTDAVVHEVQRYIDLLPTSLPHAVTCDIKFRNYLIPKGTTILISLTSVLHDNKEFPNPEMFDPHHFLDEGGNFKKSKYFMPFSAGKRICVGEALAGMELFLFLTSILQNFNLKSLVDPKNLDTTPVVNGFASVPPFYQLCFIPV
Sequence of cardiac potassium (hERG) channels (Q12809 whole entry): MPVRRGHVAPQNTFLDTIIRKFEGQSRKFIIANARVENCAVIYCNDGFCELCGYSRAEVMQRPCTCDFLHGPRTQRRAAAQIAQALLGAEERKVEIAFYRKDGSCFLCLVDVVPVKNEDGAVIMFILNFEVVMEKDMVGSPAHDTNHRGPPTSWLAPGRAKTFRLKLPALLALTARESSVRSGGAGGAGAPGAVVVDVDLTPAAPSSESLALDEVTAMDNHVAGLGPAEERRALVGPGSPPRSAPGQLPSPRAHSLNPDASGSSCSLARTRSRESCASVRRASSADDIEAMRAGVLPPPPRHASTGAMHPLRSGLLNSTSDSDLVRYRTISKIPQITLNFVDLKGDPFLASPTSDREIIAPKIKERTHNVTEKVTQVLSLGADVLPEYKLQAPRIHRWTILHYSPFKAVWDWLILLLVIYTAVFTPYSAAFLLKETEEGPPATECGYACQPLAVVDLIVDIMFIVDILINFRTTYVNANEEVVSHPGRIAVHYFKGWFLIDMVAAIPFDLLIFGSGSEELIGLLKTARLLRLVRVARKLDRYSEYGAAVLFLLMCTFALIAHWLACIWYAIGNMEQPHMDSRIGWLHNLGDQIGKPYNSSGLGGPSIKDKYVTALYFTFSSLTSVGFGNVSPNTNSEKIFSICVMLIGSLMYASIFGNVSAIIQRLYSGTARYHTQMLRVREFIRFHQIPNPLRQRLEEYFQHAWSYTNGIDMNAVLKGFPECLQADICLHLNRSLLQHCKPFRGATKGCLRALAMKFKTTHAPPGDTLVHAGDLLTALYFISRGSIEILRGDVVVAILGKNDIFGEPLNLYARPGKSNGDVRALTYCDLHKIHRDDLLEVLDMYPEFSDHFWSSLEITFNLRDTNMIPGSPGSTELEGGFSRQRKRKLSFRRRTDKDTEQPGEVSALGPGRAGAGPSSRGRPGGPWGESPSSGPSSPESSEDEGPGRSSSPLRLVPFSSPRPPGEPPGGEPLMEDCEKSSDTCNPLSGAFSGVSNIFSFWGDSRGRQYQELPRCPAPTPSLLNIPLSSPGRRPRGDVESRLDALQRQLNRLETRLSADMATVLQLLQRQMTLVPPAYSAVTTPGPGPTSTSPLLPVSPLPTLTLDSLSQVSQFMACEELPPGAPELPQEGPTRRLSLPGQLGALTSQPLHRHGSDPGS
Sequence of hERG (Q12809 whole entry): as above

`CN(C)C(=O)c1ccc(Cn2cnccc2=O)cc1` [N,N-dimethyl-4-((6-oxopyrimidin-1(6H)-yl)methyl)benzamide] had a fraction unbound at 4 h, 5 μM in series [1] of 0.694. Further, the IC50 in [2] is > 50 µM; in series [3], > 50 µM; in series [4], > 50 µM; in [5], > 50 µM; in series [6], > 50 µM; in [7], > 100 µM. Further, at 100 µM the inhibition in series [8] was 7%. Further, the solubility at 5 min in [9] was > 100 mg/mL. In addition, in [10] (all strains, plate incorporation), the “mutagenicity (revertant numbers)” value is listed as “not mutagenic”. The “toxicity to bacterial strains” value in [10] is “no evidence of toxicity”.
